Measured values: publication PMC8016998, “Identification of potential therapeutic antimicrobial peptides against Acinetobacter baumannii in a mouse model of pneumonia” (Scientific Reports, 2021)
No end group written: not given here.

Columns and labels:
[1] = tested on: Acinetobacter baumannii 17,978; format: cell-based; settings: 17,978, 24 h;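 note: CLSI broth microdilution in 96-well polypropylene plates, MBC taken as lowest concentration giving no growth when clear wells were subcultured on LB agar for 24 h at 37 °C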
Description: (§1) MBC were determined by extending the MIC procedure in sterilized 96-well polypropylene microtiter plates according to the broth microdilution guidelines of the Clinical and Laboratory Standards Institute with some modification[47]. […] In addition, 10 µL was drawn from each well with no visible turbidity onto LB agar plates and incubated for 24 h at 37 °C. The lowest concentration showing no visible growth on agar subculture was used as the MBC value. All experiments were performed in triplicate.

[2] = tested on: Acinetobacter baumannii 19,606; format: cell-based; settings: 19,606, 24 h
MDRAB clinical strains = format: cell-based, Acinetobacter baumannii; settings: 24 h
Description: as §1

[3] = tested on: MDRAB clinical strain J49; format: cell-based, Acinetobacter baumannii; settings: 24 h
MDRAB clinical strain K2 = format: cell-based, Acinetobacter baumannii; settings: 24 h
[4] = tested on: MDRAB clinical strain Y92; format: cell-based, Acinetobacter baumannii; settings: 24 h
Description: as §1

[5] = tested on: MDRAB clinical strain W11; format: cell-based, Acinetobacter baumannii; settings: 24 h
Description: as §1

[6] = tested on: MDRAB clinical strain U80; format: cell-based, Acinetobacter baumannii; settings: 24 h
[7] = tested on: MDRAB clinical strain U95; format: cell-based, Acinetobacter baumannii; settings: 24 h
Description: as §1

[8] = tested on: MDRAB clinical strain O59; format: cell-based, Acinetobacter baumannii; settings: 24 h
[9] = tested on: MDRAB clinical strain D29; format: cell-based, Acinetobacter baumannii; settings: 24 h
[10] = tested on: MDRAB clinical strain L87; format: cell-based, Acinetobacter baumannii; settings: 24 h
Description: as §1

[11] = tested on: MDRAB clinical strain AO80; format: cell-based, Acinetobacter baumannii; settings: 24 h
Description: as §1

[12] = tested on: MDRAB clinical strain AS40; format: cell-based, Acinetobacter baumannii; settings: 24 h
Description: as §1

[13] = tested on: MDRAB clinical strain AK29; format: cell-based, Acinetobacter baumannii; settings: 24 h
[14] = tested on: MDRAB clinical strain AK61; format: cell-based, Acinetobacter baumannii; settings: 24 h
Description: as §1

[15] = tested on: MDRAB clinical strain AE5; format: cell-based, Acinetobacter baumannii; settings: 24 h
Description: as §1

[16] = tested on: MDRAB clinical strain AE6; format: cell-based, Acinetobacter baumannii; settings: 24 h
[17] = tested on: MDRAB clinical strain AF11; format: cell-based, Acinetobacter baumannii; settings: 24 h
Description: as §1

[18] = tested on: MDRAB clinical strain AF12; format: cell-based, Acinetobacter baumannii; settings: 24 h
Description: as §1

[19] = tested on: MDRAB clinical strain AF93; format: cell-based, Acinetobacter baumannii; settings: 24 h
Description: as §1

[20] = tested on: MDRAB clinical strain AG51; format: cell-based, Acinetobacter baumannii; settings: 24 h
[21] = tested on: MDRAB clinical strain AN10; format: cell-based, Acinetobacter baumannii; settings: 24 h
Description: as §1

[22] = tested on: MDRAB clinical strain AL87; format: cell-based, Acinetobacter baumannii; settings: 24 h
[23] = tested on: MDRAB clinical strain AZ93; format: cell-based, Acinetobacter baumannii; settings: 24 h

GAKYAKIIYNYLKKIANALW [GW-A2]
32 µg/mL: MBC [1] | MIC [1] | MIC (MDRAB clinical strain K2) | MIC [7] | MBC [8] | MIC [8] | MBC [16] | MBC [17]
8 to 32 µg/mL: MIC (MDRAB clinical strains)
8 µg/mL: MBC [2] | MIC [2] | MIC [11] | MIC [12] | MBC [13] | MIC [13] | MBC [14] | MIC [14] | MBC [18] | MIC [18] | MBC [20] | MIC [20] | MBC [21] | MIC [21] | MBC [22] | MIC [22] | MIC [23]
16 µg/mL: MBC [3] | MIC [3] | MBC [4] | MIC [4] | MBC [5] | MIC [5] | MBC [6] | MIC [6] | MBC [9] | MIC [9] | MBC [10] | MIC [10] | MBC [11] | MBC [12] | MBC [15] | MIC [15] | MIC [16] | MIC [17] | MBC [19] | MIC [19] | MBC [23]
64 µg/mL: MBC (MDRAB clinical strain K2) | MBC [7]
8 to 64 µg/mL: MBC (MDRAB clinical strains)

GRFKRFRKKFKKLFKKLSPVIPLLHLG [BMAP-27]
16 µg/mL: MBC [1] | MIC [1] | MIC (MDRAB clinical strain K2) | MBC [5] | MIC [5] | MBC [6] | MBC [7] | MIC [7] | MBC [8] | MIC [8] | MBC [9] | MIC [9] | MBC [10] | MIC [10] | MBC [15] | MBC [16] | MIC [16] | MBC [17]
32 µg/mL: MBC (MDRAB clinical strain K2)
4 µg/mL: MIC [13] | MIC [20] | MBC [21] | MIC [21]
8 µg/mL: MBC [2] | MIC [2] | MBC [3] | MIC [3] | MBC [4] | MIC [4] | MIC [6] | MBC [11] | MIC [11] | MBC [12] | MIC [12] | MBC [13] | MBC [14] | MIC [14] | MIC [15] | MIC [17] | MBC [18] | MIC [18] | MBC [19] | MIC [19] | MBC [20] | MBC [22] | MIC [22] | MBC [23] | MIC [23]
4 to 16 µg/mL: MIC (MDRAB clinical strains)
